This note sets out measurements from patent US8703805B2 (Exelixis Patent Company LLC, priority 2005, dated 2014).

The test has as its system LXRα and/or LXRβ. In words: LXR/LXRE co-transfection assay (luciferase reporter, CV-1 cells). The class given is cell-based, human. The settings on record: IC50 or EC50 for LXR (LXRα and/or LXRβ, not distinguished), tested as described in Example 109, CV-1 cells. From the text:
To measure the ability of compounds to activate or inhibit the transcriptional activity of LXR in a cell based assay, the co-transfection assay was used. It has been shown that LXR functions as a heterodimer with RXR. For the co-transfection assay; expression plasmids for LXR and RXR are introduced via transient transfection into mammalian cells along with a luciferase reporter plasmid that contains one copy of a DNA sequence that is bound by LXR-RXR heterodimers (LXRE; Willy, P. ad. 1995). Treatment of transfected cells with an LXR agonist increases the transcriptional activity of LXR, which is measured by an increase in luciferase activity.
CV-1 African Green Monkey Kidney Cells Co-transfection expression plasmids, comprising full-length LXRα (pCMX-h LXRα, LXRβ (pCMX-hLXRβ), or RXRα (pCMX-RXR), reporter plasmid (LXREx1-Tk-Luciferase), and control (pCMX-Galactosidase expression vector) (Willey et al. Genes & Development 91033-1045 (1995)). Transfection reagent such as FuGENE6 (Roche). 1× Cell lysis buffer (1% Triton X 100 (IT Baker X200-07), 10% Glycerol (JT Baker M778-07), 5 mM Ditriotreitol (Quantum Bioprobe DTT03; add fresh before lysing), 1 mM EGTA (Ethylene Glycol-bis(B-Amino ethyl ether)-N,N,N′,N′-Tetracetic Acid) (Sigma E-4378), 25 mM Tricine (ICN 807420) pH 7.8) 1× Luciferase assay buffer (pH at 7.8) (0.73 mM ATP, 22.3 mM Tricine, 0.11 mM EDTA, 33.3 mM DTT) 1× Luciferrin/CoA (11 mM Luciferin, 3.05 mM Coenzyme A, 10 mM HEPES) Preparation of Screening Reagents
CV-1 cells were prepared 24 hours prior to the experiment by plating them into T-175 flasks or 500 cm^2 dishes in order to achieve 70-80% confluency on the day of the transfection. The number of cells to be transfected was determined by the number of plates to be screened. each 384 well plate requires 1.92×10^6 cells or 5000 cells per well. DNA Transfection Reagent was prepared by mixing the required plasmid DNAs with a cationic lipid transfection reagent FuGENE6 (Roche) by following the instructions provided with the reagents. Optimal DNA amounts were determined empirically per cell line and size of vessel to be transfected. 10-12 mL of media was added to the DNA Transfection Reagent and this mixture was added to the cells after aspirating media from the T175 cm^2 flask. Cells were then incubated at least 5 hours at 37° C. to prepare screening cells.
Luciferase assay reagent was prepared by combining before use (per 10 mL): […], 0.54 mL of 1× Luciferrin/CoA; 0.54 mL of 0.2 M Magnesium sulfate
Assay plates were prepared by dispensing 5 μL of compound per well of a 384 well plate to achieve final compound concentration of 10 μM and no more than 1% DMSO. Media was removed from the screening cells, the cells trypsinized, harvested cells by centrifugation, counted, and plated at a density of approximately 5000 cells per well in the 384 well assay plate prepared above in a volume of about 45 μL. Assay plates containing both compounds and screening cells (50 μL in total volume) were incubated for 20 hours at 37° C.
After incubation with compounds, media was removed from the cells and lysis buffer (30 μL/well) added. After 30 minutes at ambient temperature, luciferase assay buffer (30 μL/well) was added and the assay plates read on a luminometer (PE Biosystems Northstar reader with on-board injectors, or equivalent). Plates were read immediately after addition of luciferase assay buffer.
The LXR/LXRE co-transfection assay can be used to establish the EC50/IC50 values for potency and percent activity or inhibition for efficacy. Efficacy defines the activity of a compound relative to a high control ((N-(3-((4-fluorophenyl)-(naphthalene-2-sulfonyl)amino)propyl)-2,2-dimethylpropionamide)) or a low control (DMSO/vehicle). The dose response curves are generated from an 8 point curve with concentrations differing by ½ LOG units. each point represents the average of 4 wells of data from a 384 well plate. […]

“1-(5-(1-(2-chlorophenyl)-3-(trifluoromethyl)-1H-pyrazol-5-yl)thiophen-2-ylsulfonyl)-4-methylpiperazine [Example 69]” displayed an EC50 of less than 1000 nM.
The value for “2-[1-(2-chlorophenyl)-5-{5-[3-(methylsulfonyl)phenyl]pyridin-2-yl}-1H-pyrazol-3-yl]propan-2-ol [Example 79]” was greater than 10000 nM; that for `CC(C)(O)c1nn(-c2ccccc2F)c(-c2ccc(-c3cccc(S(C)(=O)=O)c3)s2)c1Cl` [Example 23] was less than 1000 nM; that for `CC(C)(O)c1cc(-c2sc(-c3cccc(S(C)(=O)=O)c3)cc2Br)n(-c2cccc(F)c2C(F)(F)F)n1` [Example 49, 2-(5-(3-bromo-5-(3-(methylsulfonyl)phenyl)thiophen-2-yl)-1-(3-fluoro-2-(trifluoromethyl)phenyl)-1H-pyrazol-3-yl)propan-2-ol] was less than 1000 nM.
To `FC(F)(F)c1cc(-c2cccc(OCCN3CCOCC3)c2)n(-c2ccccc2Cl)n1` [Example 67, 4-(2-(3-(1-(2-chlorophenyl)-3-(trifluoromethyl)-1H-pyrazol-5-yl)phenoxy)-ethyl)morpholine] belongs 1000 to 10000 nM.
The molecule `CS(=O)(=O)c1cccc(Oc2ccc(-c3cc(C(F)(F)F)nn3-c3ccccc3Cl)cc2)c1` [Example 68, 1-(2-chlorophenyl)-5-(4-{[3-(methylsulfonyl)phenyl]oxy}phenyl)-3-(trifluoromethyl)-1H-pyrazole] returned an EC50 of less than 1000 nM.
To `CC(C)(O)c1cc(-c2ccc(C(=O)N3CCC3)cc2)n(-c2ccccc2Cl)n1` [Example 80] belongs greater than 10000 nM; to `CC(C)(O)c1cc(-c2cccc(Cl)c2Cl)n(-c2ccc(-c3cccc(S(C)(=O)=O)c3)cc2)n1` [Example 106, 2-(5-(2,3-dichlorophenyl)-1-(3′-(methylsulfonyl)biphenyl-4-yl)-1H-pyrazol-3-yl)propan-2-ol], 1000 to 10000 nM; to `Cc1cc(-c2cccc(S(C)(=O)=O)c2)ccc1-c1c(Cl)c(C(C)(C)O)nn1-c1cnccc1C(F)(F)F` [Example 107, 2-(4-chloro-5-(3-methyl-3′-(methylsulfonyl)biphenyl-4-yl)-1-(4-(trifluoromethyl)pyridin-3-yl)-1H-pyrazol-3-yl)propan-2-ol], less than 1000 nM.
In the case of `CC(C)(O)c1cc(-c2ccc(-c3cccc(S(C)(=O)=O)c3)cc2)n(-c2cnccc2C(F)(F)F)n1` [Example 108, 2-(5-(3′-(methylsulfonyl)biphenyl-4-yl)-1-(4-(trifluoromethyl)pyridin-3-yl)-1H-pyrazol-3-yl)propan-2-ol], the EC50 lay in the range of 1000 to 10000 nM.
To `CC(C)(O)c1nn(-c2cnccc2C(F)(F)F)c(-c2ccc(-c3cccc(S(C)(=O)=O)c3)cc2)c1Cl` [Example 109, 2-(4-chloro-5-(3′-(methylsulfonyl)biphenyl-4-yl)-1-(4-(trifluoromethyl)pyridin-3-yl)-1H-pyrazol-3-yl)propan-2-ol] belongs 1000 to 10000 nM.
The molecule `CC(C)(O)c1nn(-c2ccc(-c3cccc(S(C)(=O)=O)c3)cc2)c(-c2ccccc2Cl)c1Cl` [Example 110, 2-(4-chloro-5-(2-chlorophenyl)-1-(3′-(methylsulfonyl)biphenyl-4-yl)-1H-pyrazol-3-yl)propan-2-ol] had an EC50 of less than 1000 nM.
The molecule `CC(C)(O)c1cc(-c2ccc(-c3cccc(S(C)(=O)=O)c3)s2)n(-c2ccncc2Cl)n1` [Example 112, 2-(1-(3-chloropyridin-4-yl)-5-(5-(3-(methylsulfonyl)phenyl)thiophen-2-yl)-1H-pyrazol-3-yl)propan-2-ol] had an EC50 of 1000 to 10000 nM.
`Cc1cc(-c2cccc(S(C)(=O)=O)c2)ccc1-n1nc(C(C)(C)O)cc1-c1ccccc1Cl` [Example 113, 2-(5-(2-chlorophenyl)-1-(3-methyl-3′-(methylsulfonyl)biphenyl-4-)-1H-pyrazol-3-yl)propan-2-ol]: the EC50 is less than 1000 nM.
On to `CC(C)(O)c1cc(-c2ccccc2Cl)n(-c2ccc(-c3cccc(S(C)(=O)=O)c3)cc2Cl)n1` [Example 114, 2-(1-(3-chloro-3′-(methylsulfonyl)biphenyl-4-yl)-5-(2-chlorophenyl)-1H-pyrazol-3-yl)propan-2-ol], for which the EC50 is less than 1000 nM.
In turn, `Cc1cc(-c2cccc(S(C)(=O)=O)c2)ccc1-n1nc(C(C)(C)O)cc1-c1c(F)cccc1Cl` [Example 115, 2-(5-(2-chloro-6-fluorophenyl)-1-(3-methyl-3′-(methylsulfonyl)biphenyl-4-yl)-1H-pyrazol-3-yl)propan-2-ol] came in with an EC50 of less than 1000 nM.
The molecule `Cc1cc(-c2cccc(S(C)(=O)=O)c2)ccc1-n1nc(C(C)(C)O)cc1-c1cccc(F)c1F` [Example 116, 2-(5-(2,3-difluorophenyl)-1-(3-methyl-3′-(methylsulfonyl)biphenyl-4-yl)-1H-pyrazol-3-yl)propan-2-ol] gave an EC50 of less than 1000 nM.
With `CC(C)(O)c1cc(-c2ccc(-c3cccc(S(C)(=O)=O)c3)cc2Cl)n(-c2cnccc2C(F)(F)F)n1` [Example 117, 2-(5-(3-chloro-3′-(methylsulfonyl)biphenyl-4-yl)-1-(4-(trifluoromethyl)pyridin-3-yl)-1H-pyrazol-3-yl)propan-2-ol], the EC50 was 1000 to 10000 nM.
The value for `COC(=O)c1cc(-c2ccc(-c3cccc(S(C)(=O)=O)c3)cn2)n(-c2ccccc2Cl)n1` [Example 118, methyl 1-(2-chlorophenyl)-5-(5-(3-(methylsulfonyl)phenyl)pyridin-2-yl)-1H-pyrazole-3-carboxylate] was less than 1000 nM; that for `CC(C)(O)c1cc(-c2ccc(-c3cccc(S(C)(=O)=O)c3)cn2)n(-c2ccccc2Cl)n1` [Example 119, 2-(1-(2-chlorophenyl)-5-(5-(3-(methylsulfonyl)phenyl)pyridin-2-yl)-1H-pyrazol-3-yl)propan-2-ol] was 1000 to 10000 nM.
On to `CC(C)(O)c1cc(-c2c(F)cccc2Cl)n(-c2ccc(-c3cccc(S(C)(=O)=O)c3)cc2F)n1` [Example 120, 2-(5-(2-chloro-6-fluorophenyl)-1-(3-fluoro-3′-(methylsulfonyl)biphenyl-4-yl)-1H-pyrazol-3-yl)propan-2-ol], for which the EC50 was less than 1000 nM.
For the molecule `CC(C)(O)c1cc(-c2cccc(F)c2F)n(-c2ccc(-c3cccc(S(C)(=O)=O)c3)cc2F)n1` [Example 121, 2-(5-(2,3-difluorophenyl)-1-(3-fluoro-3′-(methylsulfonyl)biphenyl-4-yl)-1H-pyrazol-3-yl)propan-2-ol], the EC50 lay within 1000 to 10000 nM.
The value for `Cc1cc(-c2cccc(S(C)(=O)=O)c2)ccc1-n1nc(C(C)(C)O)cc1-c1c(Cl)cccc1Cl` [Example 122, 2-(5-(2,6-dichlorophenyl)-1-(3-methyl-3′-(methylsulfonyl)biphenyl-4-yl)-1H-pyrazol-3-yl)propan-2-ol] was less than 1000 nM; that for `C=C(C)c1cc(-c2ccc(-c3cccc(S(C)(=O)=O)c3)s2)n(-c2ccccc2Cl)n1` [Example 123, 1-(2-chlorophenyl)-5-(5-(3-(methylsulfonyl)phenyl)thiophen-2-yl)-3-(prop-1-en-2-yl)-1H-pyrazole] was less than 1000 nM; that for `CC(C)(O)c1cc(-c2c(Cl)cccc2Cl)n(-c2ccc(-c3cccc(S(C)(=O)=O)c3)cc2Cl)n1` [Example 124, 2-(1-(3-chloro-3′-(methylsulfonyl)nbiphenyl-4-yl)-5-(2,6-dichlorophenyl)-1H-pyrazol-3-yl)propan-2-ol] was less than 1000 nM.
